Laboratory results: ChEMBL document CHEMBL1147761, “Novel 1,3-dipropyl-8-(1-heteroarylmethyl-1H-pyrazol-4-yl)-xanthine derivatives as high affinity and selective A2B adenosine receptor antagonists” (Bioorg Med Chem Lett, 2006)

Assays:
Adenosine receptor A2b = biological target: T1, Adenosine receptor A2b (Homo sapiens, UniProt P29275); experiment: Displacement of [3H]ZM-241385 from Adenosine A2B receptor expressed in HEK cells; format: cell-based, HEK293
T1 sequence (P29275 whole entry): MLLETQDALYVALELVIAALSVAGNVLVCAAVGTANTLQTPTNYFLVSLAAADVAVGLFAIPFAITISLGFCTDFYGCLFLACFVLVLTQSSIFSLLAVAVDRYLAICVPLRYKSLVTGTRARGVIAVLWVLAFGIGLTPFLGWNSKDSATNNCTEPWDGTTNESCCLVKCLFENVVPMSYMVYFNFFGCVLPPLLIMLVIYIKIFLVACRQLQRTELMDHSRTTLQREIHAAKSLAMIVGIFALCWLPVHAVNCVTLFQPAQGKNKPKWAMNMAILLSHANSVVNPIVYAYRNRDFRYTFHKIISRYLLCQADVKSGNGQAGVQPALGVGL

Adenosine receptor A1 = biological target: T2, Adenosine receptor A1 (Homo sapiens, UniProt P30542); experiment: Displacement of [3H]CPX from Adenosine A1 receptor expressed in CHO cells; format: cell-based
T2 sequence (P30542 whole entry): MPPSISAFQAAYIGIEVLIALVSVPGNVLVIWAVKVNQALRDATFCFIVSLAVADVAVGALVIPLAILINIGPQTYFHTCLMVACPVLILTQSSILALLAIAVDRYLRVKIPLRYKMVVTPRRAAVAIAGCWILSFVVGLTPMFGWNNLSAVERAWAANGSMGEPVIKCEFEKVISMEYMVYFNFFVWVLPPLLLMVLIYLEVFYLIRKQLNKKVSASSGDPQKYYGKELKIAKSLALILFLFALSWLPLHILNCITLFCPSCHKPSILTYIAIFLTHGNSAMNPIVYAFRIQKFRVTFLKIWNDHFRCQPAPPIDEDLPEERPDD

Adenosine receptor A2a = Adenosine receptor A2a (Homo sapiens, UniProt P29274); experiment: Displacement of [3H]ZM-241385 from Adenosine A2A receptor expressed in HEK cells; format: cell-based, HEK293
Adenosine receptor A3 = biological target: T3, Adenosine receptor A3 (Homo sapiens, UniProt P0DMS8); experiment: Displacement of [125I]AB-MECA from Adenosine A3 receptor expressed in CHO cells; format: cell-based
T3 sequence (P0DMS8 whole entry): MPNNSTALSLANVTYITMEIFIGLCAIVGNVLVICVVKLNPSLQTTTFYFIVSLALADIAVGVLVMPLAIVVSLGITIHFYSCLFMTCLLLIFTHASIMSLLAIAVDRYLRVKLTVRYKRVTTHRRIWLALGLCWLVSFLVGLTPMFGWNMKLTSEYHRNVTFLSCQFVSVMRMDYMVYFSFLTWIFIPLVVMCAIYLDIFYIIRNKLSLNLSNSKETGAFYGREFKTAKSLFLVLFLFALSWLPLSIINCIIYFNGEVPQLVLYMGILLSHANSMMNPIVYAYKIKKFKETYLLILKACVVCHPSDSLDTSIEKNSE

[1] = biological target: Adenosine receptors; A1 & A2b (Homo sapiens) (UniProt P30542+P29275); experiment: Selectivity of adenosine A1 receptor over adenosine A2B receptor; format: protein assay
[2] = biological target: Adenosine A2 receptor (Homo sapiens) (UniProt P29275+P29274); experiment: Selectivity of adenosine A2A receptor over adenosine A2B receptor; format: protein assay
[3] = biological target: Adenosine receptors; A2b & A3 (Homo sapiens) (UniProt P29275+P0DMS8); experiment: Selectivity of adenosine A3 receptor over adenosine A2B receptor; format: protein assay

Chain of Adenosine A2 receptor (Homo sapiens) (P29274 whole entry, looked up, one chain of several): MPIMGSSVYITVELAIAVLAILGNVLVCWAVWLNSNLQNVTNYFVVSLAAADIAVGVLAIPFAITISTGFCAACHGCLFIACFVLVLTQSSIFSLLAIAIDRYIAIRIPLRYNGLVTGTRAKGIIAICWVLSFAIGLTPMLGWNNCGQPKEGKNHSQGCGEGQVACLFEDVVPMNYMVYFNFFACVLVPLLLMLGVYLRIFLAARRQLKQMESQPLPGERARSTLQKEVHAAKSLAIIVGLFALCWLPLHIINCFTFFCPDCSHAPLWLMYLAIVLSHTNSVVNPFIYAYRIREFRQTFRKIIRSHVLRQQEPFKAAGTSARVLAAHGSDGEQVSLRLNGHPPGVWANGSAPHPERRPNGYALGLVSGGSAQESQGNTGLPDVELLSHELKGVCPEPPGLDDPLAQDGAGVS
Chain of Adenosine receptor A2a (P29274 whole entry): as the sequence (P29274 whole entry, looked up, one chain of several) above

Compound	Ki (Adenosine receptor A2b) [nM]	Ki (Adenosine receptor A1) [nM]	Ki (Adenosine receptor A2a) [nM]	Ki (Adenosine receptor A3) [nM]	Ratio Ki [1]	Ratio Ki [2]	Ratio Ki [3]
CCCn1c(=O)c2nc(-c3cnn(Cc4noc(-c5ccccc5OC)n4)c3)[nH]c2n(CCC)c1=O	83	930	3400	> 8300	11	40	> 100
CCCn1c(=O)c2nc(-c3cnn(Cc4nc(-c5cccc(C)c5)no4)c3)[nH]c2n(CCC)c1=O					11	> 39	8
CCCn1c(=O)c2nc(-c3cnn(Cc4noc(-c5ccccc5Cl)n4)c3)[nH]c2n(CCC)c1=O					16	65	9
CCCn1c(=O)c2nc(-c3cnn(Cc4nc(-c5ccccc5)no4)c3)[nH]c2n(CCC)c1=O	1	370	1100	480	370	1100	480
CCCn1c(=O)c2[nH]c(-c3cnn(Cc4noc(-c5ccccc5Cl)n4)c3)nc2n(CCC)c1=O	38	630	2500	330			
CCCn1c(=O)c2nc(-c3cnn(Cc4nc(-c5cccc(OC)c5)no4)c3)[nH]c2n(CCC)c1=O					26	> 60	7
CCCn1c(=O)c2[nH]c(-c3cnn(CC(=O)Nc4ccccc4Cl)c3)nc2n(CCC)c1=O	22	102	1500	1200			
CCCn1c(=O)c2nc(-c3cnn(Cc4cc(-c5ccccc5Cl)on4)c3)[nH]c2n(CCC)c1=O					> 54	24	20
CCCn1c(=O)c2[nH]c(-c3cnn(Cc4nc(-c5cccc(C)c5)no4)c3)nc2n(CCC)c1=O	128	1400	> 5000	970			
CCCn1c(=O)c2[nH]c(-c3cnn(Cc4noc(-c5ccccc5C(F)(F)F)n4)c3)nc2n(CCC)c1=O	100	1900	> 5000	620			
CCCn1c(=O)c2nc(-c3cnn(Cc4nc(-c5ccccc5C(F)(F)F)no4)c3)[nH]c2n(CCC)c1=O	74	530	> 5000	340	7	> 67	4
CCCn1c(=O)c2[nH]c(-c3cnn(Cc4noc(-c5cccc(OC)c5)n4)c3)nc2n(CCC)c1=O	136	810	> 5000	2000			
CCCn1c(=O)c2nc(-c3cnn(Cc4nc(-c5ccc(C(F)(F)F)cc5)no4)c3)[nH]c2n(CCC)c1=O					60	> 90	23
CCCn1c(=O)c2[nH]c(-c3cnn(Cc4nc(-c5ccc(C#N)cc5)no4)c3)nc2n(CCC)c1=O	18	1300	> 5000	950			
CCCn1c(=O)c2[nH]c(-c3cnn(Cc4cc(-c5ccccc5)on4)c3)nc2n(CCC)c1=O	14	1500	420	1800	107	30	128
CCCn1c(=O)c2[nH]c(-c3cnn(Cc4cc(-c5ccc(OC)cc5)on4)c3)nc2n(CCC)c1=O	63	2000	> 5000	3000			
CCCn1c(=O)c2nc(-c3cnn(Cc4cc(-c5ccc(Cl)cc5)on4)c3)[nH]c2n(CCC)c1=O					6	14	40
CCCn1c(=O)c2[nH]c(-c3cnn(Cc4nc(-c5ccccc5OC)no4)c3)nc2n(CCC)c1=O	82	1900	1600	410			
CCCn1c(=O)c2nc(-c3cnn(Cc4nc(-c5ccccc5OC)no4)c3)[nH]c2n(CCC)c1=O					23	19	5
CCCn1c(=O)c2[nH]c(-c3cnn(Cc4noc(-c5ccc(C#N)cc5)n4)c3)nc2n(CCC)c1=O	14	570	> 5000	640			
CCCn1c(=O)c2[nH]c(-c3cnn(Cc4nc(-c5cccc(Cl)c5)no4)c3)nc2n(CCC)c1=O	32	652	> 5000	490			

Compound	Ki (Adenosine receptor A2b) [nM]	Ki (Adenosine receptor A1) [nM]	Ki (Adenosine receptor A2a) [nM]	Ki (Adenosine receptor A3) [nM]	Ratio Ki [1]	Ratio Ki [2]	Ratio Ki [3]
CCCn1c(=O)c2[nH]c(-c3cnn(Cc4cc(-c5ccccc5OC)on4)c3)nc2n(CCC)c1=O	195	3300	> 5000	4900			
CCCn1c(=O)c2nc(-c3cnn(Cc4nc(-c5ccc(OC)cc5)no4)c3)[nH]c2n(CCC)c1=O	106	3000	> 5000	1500	28	> 47	14
CCCn1c(=O)c2[nH]c(-c3cnn(Cc4nc(-c5cccc(OC)c5)no4)c3)nc2n(CCC)c1=O	82	2200	> 5000	600			
CCCn1c(=O)c2nc(-c3cnn(Cc4nc(-c5ccc(C)cc5)no4)c3)[nH]c2n(CCC)c1=O					48	55	160
CCCn1c(=O)c2nc(-c3cnn(Cc4noc(-c5ccccc5C(F)(F)F)n4)c3)[nH]c2n(CCC)c1=O					19	> 50	6
CCCn1c(=O)c2[nH]c(-c3cnn(Cc4nc(-c5ccc(C(F)(F)F)cc5)no4)c3)nc2n(CCC)c1=O	55	3300	> 5000	1300			
CCCn1c(=O)c2[nH]c(-c3cnn(Cc4cc(-c5ccc(Cl)cc5)on4)c3)nc2n(CCC)c1=O	82	540	1200	3300			
CCCn1c(=O)c2[nH]c(-c3cnn(Cc4cc(-c5ccccc5Cl)on4)c3)nc2n(CCC)c1=O	111	> 6000	2700	2300			
CCCn1c(=O)c2nc(-c3cnn(Cc4noc(-c5ccc(C#N)cc5)n4)c3)[nH]c2n(CCC)c1=O					40	> 357	45
CCCn1c(=O)c2nc(-c3cnn(Cc4noc(-c5cccc(C(F)(F)F)c5)n4)c3)[nH]c2n(CCC)c1=O					> 93	> 78	27
CCCn1c(=O)c2nc(-c3cnn(Cc4noc(-c5cccc(OC)c5)n4)c3)[nH]c2n(CCC)c1=O					6	> 37	15
CCCn1c(=O)c2nc(-c3cnn(Cc4nc(-c5ccc(C#N)cc5)no4)c3)[nH]c2n(CCC)c1=O					70	> 277	53
CCCn1c(=O)c2nc(-c3cnn(CC(=O)Nc4ccccc4Cl)c3)[nH]c2n(CCC)c1=O					5	68	54
CCCn1c(=O)c2[nH]c(-c3cnn(Cc4nc(-c5ccc(C)cc5)no4)c3)nc2n(CCC)c1=O	54	2600	3000	8700			
CCCn1c(=O)c2nc(-c3cnn(Cc4cc(-c5ccc(OC)cc5)on4)c3)[nH]c2n(CCC)c1=O					31	> 79	48
CCCn1c(=O)c2[nH]c(-c3cnn(Cc4noc(-c5cccc(C(F)(F)F)c5)n4)c3)nc2n(CCC)c1=O	64	> 6000	> 5000	1800			
CCCn1c(=O)c2[nH]c(-c3cnn(Cc4cc(-c5ccc(C(F)(F)F)cc5)on4)c3)nc2n(CCC)c1=O	48	2300	1700	1200			
CCCn1c(=O)c2nc(-c3cnn(Cc4nc(-c5cccc(Cl)c5)no4)c3)[nH]c2n(CCC)c1=O					20	> 156	15
CCCn1c(=O)c2nc(-c3cnn(Cc4cc(-c5ccccc5OC)on4)c3)[nH]c2n(CCC)c1=O					16	> 25	24
CCCn1c(=O)c2nc(-c3cnn(Cc4cc(-c5ccc(C(F)(F)F)cc5)on4)c3)[nH]c2n(CCC)c1=O					48	35	25
